Structures can show the parent of a compound that is named as a salt. Where two headings read alike, the source gives them in different places. Marks after values point to notes of the source that are not given here.
Experiments:
[1] = Solubility of solid state forms in solvents (gravimetric or solvent addition); format: physicochemical
Experimental: The solubility of certain solid state forms of Compound I was determined in various solvents by either gravimetric solubility or solvent addition.
About 25 mg of compound was weighed into vials. Approximately 5 vol. (0.125 mL) of solvent was added to the solids and the mixtures stirred at the designated temperature (RT or 50° C.). Solutions were noted and an additional 0.125 mL of solvent was added to the slurries. […] If a thicker slurry was noted, 0.25 mL of solvent was added (total volume 0.5 mL). If a thick slurry was again noted, an additional 0.25 mL of solvent was added (total volume 0.75 mL). After stirring for 2 days, the slurries were centrifuged, the supernatant was collected into preweighed vials, and the solvent evaporated at 50° C. (ambient pressure) without stirring. The vials containing the solid residues were dried in a vacuum oven at 50 C, 10^−2-10^−1 Torr, for 3 h before weighing again to determine the mass of solid that was dissolved in the supernatant (i.e. mg solid/mL solvent).
About 20 mg of compound was weighed into vials. Solvent was added in aliquots and stirred at the designated temperature until complete dissolution was observed. This measurement gave a solubility range.

[2] = Solubility in simulated fluids and water; format: physicochemical; settings: 37° C.
Experimental: Calibration samples for solubility in simulated fluids were prepared with freebase Compound I.
Solubility in simulated fluids were studied with the mandelate and maleate solids. The simulated fluids FaSSIF (fasted-state intestinal), FaSSGF (fasted-state gastric), and FeSSIF (fed-state intestinal) were removed from the refrigerator, warmed to room temperature, and the pH of each was measured. Between 1.9 and 2.0 mg of each salt was weighed into four vials and 1 mL of each fluid was added, including water. Stir bars (10 mm) were added to the vials and the vials were stirred at 37° C. After 30 mi (mandelate samples) or 1 h (maleate samples), the pH of each solution was measured, then 400 μL of each was removed and syringe filtered with 0.45 µm syringe filters. Approximately 300 μL of the recovered filtrate was diluted 5× with diluent and injected for HPLC analysis. The remainder of the samples in the vials were allowed to stir overnight. After 24 h stirring at 37° C., samples were filtered and diluted as before, and injected for analysis.

[3] = Form stability at ambient conditions for one week (XRPD); format: physicochemical
Source text: Some of the samples generated in the antisolvent crystallization experiments were mixtures of Pattern B, Pattern C, and Pattern D. These samples were left at ambient conditions for one week, then analyzed again by XRPD.
Pure Pattern B was generated in the antisolvent crystallization with MIBK and heptane. […] The solids were scraped from the XRPD plate and used for simultaneous TGA/DSC analysis. […] After the solids required for the TGA/DSC analysis were transferred to the pan, the remainder of the solids were re-pressed to the XRPD sample plate and analyzed again.

[4] = Stability of crystalline forms at 40° C. and 75% relative humidity (XRPD, HPLC purity); settings: for Change by XRPD after storage / Degradation by HPLC purity analysis after storage: 40° C., 75% relative humidity
Experimental: Approximately 10 mg of the Crystalline Pattern D of Compound I Maleate, 20 mg of the Crystalline Pattern C of Compound I Maleate, and 10 mg of the Crystalline Pattern E of Compound I Mandelate were weighed into open 4 mL vials that were placed into a 20 mL vial containing a saturated NaCl solution. The vial was sealed and kept at 40° C. for 7 days, creating an atmosphere at 75% relative humidity in the system. After 7 days, the materials were sampled and plated for XRPD analysis.
The stability test was repeated on Patterns C and D of Compound I Maleate for 11 days.

[5] = Dynamic vapor sorption (DVS); format: physicochemical
Experimental: DVS was performed using a DVS Intrinsic 1. The sample (20-25 mg) was loaded into a sample pan, suspended from a microbalance and exposed to a humidified stream of nitrogen gas. The sample was held for a minimum of 5 min at each level and only progressed to the next humidity level if there was <0.002% change in weight between measurements (interval: 60 s) or 240 min had elapsed. The following program was used: • 1. Equilibration at 50% RH • 2. 50% to 2%. (50%, 40%, 30%, 20%, 10%, and 2%) • 3. 2% to 95% (2%, 10%, 20%, 30%, 40%, 50%, 60%, 70%, 80%, 90%, and 95%) • 4. 95% to 2% (95%, 80%, 70%, 60%, 50%, 40%, 30%, 20%, 10%, and 2%) • 5. 2% to 50% (2%, 10%, 20%, 30%, 40%, and 50%)

CCOc1ccccc1-c1ccc(N2CCN(C(=O)C3(C(F)(F)F)CCC3)C[C@H]2CC)c(C(=O)N[C@@H]2CN3CCC2CC3)n1 [Pattern D Maleate, N-[(3S)-1-azabicyclo[2.2.2]octan-3-yl]-6-(2-ethoxyphenyl)-3-[(2R)-2-ethyl-4-[1-(trifluoromethyl)-cyclobutanecarbonyl]piperazin-1-yl]pyridine-2-carboxamide maleate]
Solubility (in words) ([1]; EtOAc and MIBK at RT and 50° C.): freely soluble and soluble | solubility ([1]; EtOAc, 50 °C, organic solvent or mixture, thermodynamic from solid, EtOAc, 50° C., read-out: Solubility): 68000 µg/mL | solubility ([1]; EtOAc, RT, maleate): 43^d mg/mL | solubility ([1]; EtOH, RT, maleate): >50^a mg/mL | solubility ([1]; EtOH:MtBE (1:9 vol.), organic solvent or mixture, thermodynamic from solid, EtOH:MtBE (1:9 vol.), RT, read-out: Solubility): 4000 µg/mL | solubility ([1]; EtOH:MtBE (3:7 vol.), organic solvent or mixture, thermodynamic from solid, EtOH:MtBE (3:7 vol.), RT, read-out: Solubility): 51000 µg/mL | Solubility (in words) ([1]; IP at RT): soluble | Behaviour in solvent (in words) ([1]; IPA, 50° C.): a slurry could not be maintained | solubility ([1]; IPA, organic solvent or mixture, thermodynamic from solid, IPA, RT, read-out: Solubility): 68000 µg/mL | solubility ([1]; IPA:MtBE (1:1 vol.), organic solvent or mixture, thermodynamic from solid, IPA:MtBE (1:1 vol.), RT, read-out: Solubility): 10000 µg/mL | solubility ([1]; IPA:MtBE (1:9 vol.), organic solvent or mixture, thermodynamic from solid, IPA:MtBE (1:9 vol.), RT, read-out: Solubility): < 3000 µg/mL | solubility ([1]; IPA:MtBE (3:7 vol.), organic solvent or mixture, thermodynamic from solid, IPA:MtBE (3:7 vol.), RT, read-out: Solubility): 7000 µg/mL | solubility ([1]; IPA:water (9:1 vol.), organic solvent or mixture, thermodynamic from solid, IPA:water (9:1 vol.), RT, read-out: Solubility): > 333000 µg/mL | solubility ([1]; IPAc, 50 °C, organic solvent or mixture, thermodynamic from solid, IPAc, 50° C., read-out: Solubility): 13000 µg/mL | solubility ([1]; IPAc, organic solvent or mixture, thermodynamic from solid, IPAc, RT, read-out: Solubility): 7000 µg/mL | solubility ([1]; MEK, RT, maleate): >50^a mg/mL | solubility ([1]; MIBK, 50 °C, organic solvent or mixture, thermodynamic from solid, MIBK, 50° C., read-out: Solubility): 65000 µg/mL | solubility ([1]; MIBK, RT, maleate): 43^c mg/mL | solubility ([1]; MeOAc, 50 °C, organic solvent or mixture, thermodynamic from solid, MeOAc, 50° C., read-out: Solubility): > 250000 µg/mL | solubility ([1]; MeOAc, organic solvent or mixture, thermodynamic from solid, MeOAc, RT, read-out: Solubility): 168000 µg/mL | solubility ([1]; MeOAc:MtBE (1:1 vol.), organic solvent or mixture, thermodynamic from solid, MeOAc:MtBE (1:1 vol.), RT, read-out: Solubility): 17000 µg/mL | solubility ([1]; MeOAc:MtBE (1:9 vol.), organic solvent or mixture, thermodynamic from solid, MeOAc:MtBE (1:9 vol.), RT, read-out: Solubility): 3000 µg/mL | solubility ([1]; MeOAc:MtBE (3:7 vol.), organic solvent or mixture, thermodynamic from solid, MeOAc:MtBE (3:7 vol.), RT, read-out: Solubility): 7000 µg/mL | solubility ([1]; MeOH, RT, maleate): >50^a mg/mL | solubility ([1]; MtBE, 50 °C, organic solvent or mixture, thermodynamic from solid, MtBE, 50° C., read-out: Solubility): < 3000 µg/mL | solubility ([1]; MtBE, RT, maleate): <3^c mg/mL | solubility ([1]; THF, RT, maleate): >50^a mg/mL | solubility ([1]; acetone, RT, maleate): >50^a mg/mL | solubility ([1]; diethyl ether, organic solvent or mixture, thermodynamic from solid, diethyl ether, RT, read-out: Solubility): 4000 µg/mL | Solubility (in words) ([1]; heptane, diethyl ether, and MtBE): insoluble | solubility ([1]; n-heptane, 50 °C, organic solvent or mixture, thermodynamic from solid, n-heptane, 50° C., read-out: Solubility): < 3000 µg/mL | solubility ([1]; n-heptane, RT, maleate): <3^c mg/mL | solubility at 1 h ([2]; FaSSGF (fasted-state simulated gastric fluid), pH 1.49, fassgf or other biorelevant, thermodynamic from solid, FaSSGF, 1 h): > 2500 µg/mL | solubility at 24 h ([2]; FaSSGF (fasted-state simulated gastric fluid), pH 1.49, fassgf or other biorelevant, thermodynamic from solid, FaSSGF, 24 h): > 2500 µg/mL | Sample pH ([2]; FaSSGF (initial pH 1.49), 1 h): 4.66 | Sample pH ([2]; FaSSGF (initial pH 1.49), 24 h): 5.07 | solubility at 24 h ([2]; FaSSIF (fasted-state simulated intestinal fluid), pH 6.35, thermodynamic from solid, FaSSIF, 24 h): 1470 µg/mL | solubility at 1 h ([2]; FaSSIF (fasted-state simulated intestinal fluid), thermodynamic from solid, FaSSIF, 1 h): 1500 µg/mL | Sample pH ([2]; FaSSIF (initial pH 6.35), 1 h): 6.23 | Sample pH ([2]; FaSSIF (initial pH 6.35), 24 h): 6.92 | Solids recovered from the solubility experiment (appearance, XRPD) ([2]; FaSSIF, after 24 h): oily and appeared as amorphous | solubility at 1 h ([2]; FeSSIF (fed-state simulated intestinal fluid), pH 4.83, thermodynamic from solid, FeSSIF, 1 h): > 2500 µg/mL | solubility at 24 h ([2]; FeSSIF (fed-state simulated intestinal fluid), pH 4.83, thermodynamic from solid, FeSSIF, 24 h): > 2500 µg/mL | Sample pH ([2]; FeSSIF (initial pH 4.83), 1 h): 1.50 | Sample pH ([2]; FeSSIF (initial pH 4.83), 24 h): 1.85 | solubility at 1 h ([2]; thermodynamic from solid, water, 1 h): > 2500 µg/mL | solubility at 24 h ([2]; thermodynamic from solid, water, 24 h): > 2500 µg/mL | Sample pH ([2]; water, 1 h): ~6.35 | Sample pH ([2]; water, 24 h): 5.60 | Form conversion by XRPD at ambient conditions [3]: no observable conversion | Change by XRPD after storage ([4]; 7 days): No visible change | Degradation by HPLC purity analysis after storage ([4]; 7 days): no degradation | Change by XRPD after storage ([4]; 11 days): No visible change | Degradation by HPLC purity analysis after storage ([4]; 11 days): no degradation | Stability on storage (in words) ([4]; over a week at 40° C. and 75% RH): stable | Hygroscopicity (in words) ([5]; DVS): slightly hygroscopic | Change by XRPD following the DVS analysis ([5]; after DVS from 2 to 95% RH): No change | Reversible mass gain (DVS) ([5]; from 2 to 95% relative humidity): 1.14 wt. % | Behaviour at high humidity ([5]; high humidity): stable
